One test has as its target FGFR1 (Homo sapiens (Human), UniProt P11362). Briefly: In vitro biochemical kinase assay (Caliper Assay), FGFR1. The settings on record: enzyme 0.25 nM, ATP 382 μM, 20 minutes; read-out: Enzymatic activity IC50(nM) FGFR1. The method, then: (§1) I. In Vitro Biochemical Kinase Assay of FGFR 1˜3
(§2) Caliper Assay was used in the present invention to determine the inhibitory activities of the compounds against FGFR1, FGFR2, and FGFR3. The specific experimental procedure was as follows: • 1. The kinase reaction in the present invention was carried out in 384-well plates, the kinase(Carna) at a certain concentration and ATP at a certain concentration and 1 μM of peptide FAM-P22 (GL Biochem, Cat. No. 112393)) was incubated to react for a certain time at 28° C. in a reaction system consisting of 50 mM HEPES, […], 0.0015% Brij-35 and basic kinase buffer; for FGFR1, the enzyme concentration was 0.25 nM and ATP concentration was 382 μM and the reaction time was 20 minutes; for FGFR2, the enzyme concentration was 2.5 nM, ATP concentration was 1 μM, and the reaction time was 40 minutes; for FGFR3, the enzyme concentration was 8 nM, ATP concentration was 4.7 μM, and the reaction time was 30 minutes: • 2. The reaction was terminated with a stop solution (100 mM HEPES, pH 7.5, 0.2% Caliper coating, reagent, 50 mM EDTA and 0.015% Brij35); • 3. The plate with the terminated kinase reaction was transferred to the Caliper workstation to read the data; • 4. the phosphorylated and unphosphorylated peptides were separated by the Caliper microfluid migration shift technique, and the analyte was transferred by a constant buffer flow through the chip, the migration of the substrate peptide was monitored by the labeled fluorescent signal, and the kinase activity was calculated by the amount of the phosphate-based peptide formed. • 5. IC50 was determined by non-linear regression analysis of percent inhibition at different concentration level of the compound.

The target in a further test is FGFR2 (Homo sapiens (Human), UniProt P21802). Briefly: In vitro biochemical kinase assay (Caliper Assay), FGFR2. The settings on record: enzyme 2.5 nM, ATP 1 μM, 40 minutes; read-out: Enzymatic activity IC50(nM) FGFR2. The method, then:
as §1, §2

Test [1] has as its system H1581 lung cancer cells (FGFR1 gene amplification). Nature of the test: Cell proliferation assay (Cell Titer Glo), H1581. The class given is cell-based. The conditions noted are these: Homo sapiens, NCI-H1581, 72 h, 3 days, CTG, read-out: Cellular IC50 (nM) H1581. The method, then:
(§3) II. Cell Proliferation Assay (Cell Titer Glo(CTG) Assay)
(§4) The FGFR signal pathway dependent inhibitory effect of the compound in the present invention on cell proliferation was assessed by survival test using CTG reagent (Promega, 4G7573). Cell lines representative of a variety of tumor types, including H1581 lung cancer cells (FGFR1 gene amplification), Snu-16 gastric cancer cells (FGFR2 gene amplification), and RT112 bladder carcinoma cells (FGFR3-TACC3 fusion) from Nanjing Cobioer Biosciences, were selected for the assay. The specific experimental procedure was as follows: • 1. 90 μL of cells were seeded into a 96-well plate processed with TCM (Costar 43904), and incubated overnight at 37° C. in a 5% CO2 incubator; afterwards, 10 μL of the culture medium containing the compound at 10 fold of its final concentration was added; • 2. The dose-dependent effect was evaluated by a serial dilution of the test compound, starting from 10 μM or a lower concentration. • 3. The cells were incubated at 37° C. under 5% C02 for 3 days, then added 50 μL CTG, and read the data with Envision (Pelkin Elmer) to quantify the ATP level in the cells. The ATP levels in cells with treatment of inhibitor at a variety of concentrations were compared with those in cells of the control group (in which DMSO was added into the medium) to evaluate the compound percent inhibition of cell proliferation/survival. • 4. The compound half growth inhibitory concentration (IC50) was determined in Graphpad Prism by 4-parameter curve fitting.
On the technique in general: ATP-based viability assays read luminescence as a measure of living cells.

Test [2] relates to Snu-16 gastric cancer cells (FGFR2 gene amplification). Briefly: Cell proliferation assay (Cell Titer Glo), Snu-16. The settings on record: Homo sapiens, SNU-16, 72 h, Snu-16 cells, 3 days, CTG; read-out: Cellular IC50 (nM) Sun16. The class given is cell-based. As for the experimental part: as §3, §4

Where only a bound is given, the exact number is not on record here.

The values that follow come from patent US12351576B2, “FGFR inhibitor, preparation method therefor and application thereof” (Abbisko Therapeutics Co., Ltd., priority 2018, dated 2025).

As usually defined, the IC50 is the concentration that inhibits the measured activity by half.

FGFR1, sequence (P11362 22-822): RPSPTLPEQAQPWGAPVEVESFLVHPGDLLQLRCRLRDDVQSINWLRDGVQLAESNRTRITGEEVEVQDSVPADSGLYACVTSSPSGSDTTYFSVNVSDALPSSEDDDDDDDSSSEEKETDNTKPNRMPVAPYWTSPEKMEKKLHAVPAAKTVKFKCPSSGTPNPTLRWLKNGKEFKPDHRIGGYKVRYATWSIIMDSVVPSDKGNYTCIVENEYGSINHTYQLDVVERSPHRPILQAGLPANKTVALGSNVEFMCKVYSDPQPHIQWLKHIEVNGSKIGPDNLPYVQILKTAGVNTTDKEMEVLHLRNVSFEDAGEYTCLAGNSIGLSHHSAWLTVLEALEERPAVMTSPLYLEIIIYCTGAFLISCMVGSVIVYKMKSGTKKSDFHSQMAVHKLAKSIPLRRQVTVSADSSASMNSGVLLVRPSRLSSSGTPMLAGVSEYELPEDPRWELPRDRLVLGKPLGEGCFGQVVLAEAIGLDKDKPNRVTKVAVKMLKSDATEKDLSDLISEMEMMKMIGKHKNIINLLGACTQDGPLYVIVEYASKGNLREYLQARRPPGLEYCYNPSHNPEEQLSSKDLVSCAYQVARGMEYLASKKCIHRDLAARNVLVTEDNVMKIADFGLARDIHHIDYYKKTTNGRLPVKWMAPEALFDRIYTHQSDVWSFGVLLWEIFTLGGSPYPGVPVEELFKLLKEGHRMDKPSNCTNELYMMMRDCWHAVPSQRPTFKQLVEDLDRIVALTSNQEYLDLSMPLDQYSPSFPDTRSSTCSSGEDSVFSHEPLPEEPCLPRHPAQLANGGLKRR
FGFR2, sequence (P21802 22-821): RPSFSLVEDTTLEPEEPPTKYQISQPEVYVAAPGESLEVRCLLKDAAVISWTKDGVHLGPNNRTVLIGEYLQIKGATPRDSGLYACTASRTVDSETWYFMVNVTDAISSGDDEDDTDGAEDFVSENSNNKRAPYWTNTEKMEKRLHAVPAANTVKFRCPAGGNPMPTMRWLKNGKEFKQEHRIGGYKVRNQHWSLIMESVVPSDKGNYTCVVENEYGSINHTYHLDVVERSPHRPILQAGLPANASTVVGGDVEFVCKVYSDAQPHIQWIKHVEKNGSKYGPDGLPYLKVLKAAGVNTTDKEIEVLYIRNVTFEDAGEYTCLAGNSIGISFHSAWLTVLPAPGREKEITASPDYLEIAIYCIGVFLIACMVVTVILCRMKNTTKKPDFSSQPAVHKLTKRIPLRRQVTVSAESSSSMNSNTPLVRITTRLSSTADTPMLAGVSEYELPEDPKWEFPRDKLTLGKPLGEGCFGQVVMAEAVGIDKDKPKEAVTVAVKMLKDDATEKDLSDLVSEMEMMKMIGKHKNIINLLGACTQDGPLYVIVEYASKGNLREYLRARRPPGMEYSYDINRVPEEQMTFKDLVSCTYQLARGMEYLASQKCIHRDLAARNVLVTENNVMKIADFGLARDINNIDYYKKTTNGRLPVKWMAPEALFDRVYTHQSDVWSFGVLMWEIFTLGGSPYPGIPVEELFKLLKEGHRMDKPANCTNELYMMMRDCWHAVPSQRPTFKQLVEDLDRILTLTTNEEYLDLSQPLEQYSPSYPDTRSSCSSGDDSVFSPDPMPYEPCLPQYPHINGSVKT

Regarding `CCn1c(=O)c(-c2c(Cl)c(OC)cc(OC)c2Cl)cc2cnc(-c3cnn(C)c3)cc21` [Example 1, 3-(2,6-dichloro-3,5-dimethoxyphenyl)-1-ethyl-7-(1-methyl-1H-pyrazol-4-yl)-1,6-naphthyridin-2(1H)-one], the IC50 is 10 to 50 nM at FGFR1 and at most 5 nM on FGFR2.
For the compound `CCn1c(=O)c(-c2c(Cl)c(OC)cc(OC)c2Cl)cc2cnc(-c3ccc(C4(C#N)CCC4)nc3)cc21` [Example 12, 1-(5-(3-(2,6-dichloro-3,5-dimethoxyphenyl)-1-ethyl-2-oxo-1,2-dihydro-1,6-naphthyridin-7-yl)pyridin-2-yl)cyclobutane-1-carbonitrile], the IC50 is over 500 nM in test [1] and 50 to 500 nM in test [2].
In the same order, the values of `COc1cc(OC)c(Cl)c(-c2cc3cnc(-c4cnn(C)c4)cc3n(C3CCOCC3)c2=O)c1Cl` [Example 17, 3-(2,6-dichloro-3,5-dimethoxyphenyl)-7-(1-methyl-1H-pyrazol-4-yl)-1-(tetrahydro-2H-pyran-4-yl)-1,6-naphthyridin-2(1H)-one] are 50 to 500 nM and 5 to 10 nM.
For `COc1cc(OC)c(Cl)c(-c2cc3cnc(-c4ccc(C5(C#N)CCC5)nc4)cc3n(C)c2=O)c1Cl` [Example 20, 1-(5-(3-(2,6-dichloro-3,5-dimethoxyphenyl)-1-methyl-2-oxo-1,2-dihydro-1,6-naphthyridin-7-yl)pyridin-2-yl)cyclobutane-1-carbonitrile] the same measures were over 500 nM and 50 to 500 nM.
In the same order, the values of `COc1cc(OC)c(Cl)c(-c2cc3cnc(-c4cnn(C)c4)cc3n(C3CCOC3)c2=O)c1` (stereo not shown) [Example 24, 3-(2-chloro-3,5-dimethoxyphenyl)-7-(1-methyl-1H-pyrazol-4-yl)-1-(tetrahydrofuran-3-yl)-1,6-naphthyridin-2(1H)-one] are 50 to 500 nM and 10 to 50 nM.
As to `COc1cc(OC)c(F)c(-c2cc3cnc(-c4cnn(C)c4)cc3n(C(C)C)c2=O)c1F` [Example 26, 3-(2,6-difluoro-3,5-dimethoxyphenyl)-1-isopropyl-7-(1-methyl-1H-pyrazol-4-yl)-1,6-naphthyridin-2(1H)-one], the IC50 in test [1] and in test [2] was 10 to 50 nM throughout.
Take `COc1cc(OC)c(F)c(-c2cc3cnc(-c4cnn(CCN5CCOCC5)c4)cc3n(CC3CC3)c2=O)c1F` [Example 31, 1-(cyclopropylmethyl)-3-(2,6-difluoro-3,5-dimethoxyphenyl)-7-(1-(2-morpholinoethyl)-1H-pyrazol-4-yl)-1,6-naphthyridin-2(1H)-one]: the half-maximal inhibitory concentration (IC50) in test [1] lay in the range of 50 to 500 nM; in test [2], 10 to 50 nM.
As for `COc1cc(OC)c(F)c(-c2cc3cnc(-c4cccnc4)cc3n(C3CCOC3)c2=O)c1F` (stereo not shown) [Example 36, 3-(2,6-difluoro-3,5-dimethoxyphenyl)-7-(pyridin-3-yl)-1-(tetrahydrofuran-3-yl)-1,6-naphthyridin-2(1H)-one], the IC50 is 50 to 500 nM in test [1] and 10 to 50 nM in test [2].
For `COc1cc(OC)c(F)c(-c2cc3cnc(-c4cnccc4C)cc3n(C3CCOC3)c2=O)c1F` (stereo not shown) [Example 37, 3-(2,6-difluoro-3,5-dimethoxyphenyl)-7-(4-methylpyridin-3-yl)-1-(tetrahydrofuran-3-yl)-1,6-naphthyridin-2(1H)-one] the same measures were over 500 nM and 50 to 500 nM.
In the same order, the values of `COc1cc(OC)c(F)c(-c2cc3cnc(-c4ccc(N5CC6CC5CO6)nc4)cc3n(C3CCOC3)c2=O)c1F` (stereo not shown) [Example 38, 7-(6-(2-oxa-5-azabicyclo[2.2.1]heptan-5-yl)pyridin-3-yl)-3-(2,6-difluoro-3,5-dimethoxyphenyl)-1-(tetrahydrofuran-3-yl)-1,6-naphthyridin-2(1H)-one] are 10 to 50 nM and at most 5 nM.
For `COc1cc(OC)c(F)c(-c2cc3cnc(-c4ccncc4)cc3n(C3CCOC3)c2=O)c1F` (stereo not shown) [Example 39, 3-(2,6-difluoro-3,5-dimethoxyphenyl)-7-(pyridin-4-yl)-1-(tetrahydrofuran-3-yl)-1,6-naphthyridin-2(1H)-one] the same measures were 50 to 500 nM and 50 to 500 nM.
For `COc1cc(OC)c(F)c(-c2cc3cnc(-c4ccc(CC#N)cc4)cc3n(C3CCOC3)c2=O)c1F` (stereo not shown) [Example 41, 2-(4-(3-(2,6-difluoro-3,5-dimethoxyphenyl)-2-oxo-1-(tetrahydrofuran-3-yl)-1,2-dihydro-1,6-naphthyridin-7-yl)phenyl)acetonitrile], the IC50 in test [1] and in test [2] was 50 to 500 nM each time.
In the case of `CCn1c(=O)c(-c2c(Cl)c(OC)cc(OC)c2Cl)cc2cnc(-c3cn(CCN4CCOCC4)nc3C)cc21` [Example 42, 3-(2,6-dichloro-3,5-dimethoxyphenyl)-1-ethyl-7-(3-methyl-1-(2-morpholinoethyl)-1H-pyrazol-4-yl)-1,6-naphthyridin-2(1H)-one], the values for the IC50 in test [1] and in test [2] were 50 to 500 nM and 10 to 50 nM, respectively.
In the same order, the values of `CCn1c(=O)c(-c2c(Cl)c(OC)cc(OC)c2Cl)cc2cnc(-c3cn(CCC#N)nc3C)cc21` [Example 44, 3-(4-(3-(2,6-dichloro-3,5-dimethoxyphenyl)-1-ethyl-2-oxo-1,2-dihydro-1,6-naphthyridin-7-yl)-3-methyl-1H-pyrazol-1-yl)propanenitrile] are 50 to 500 nM and 50 to 500 nM.
For `CCn1c(=O)c(-c2c(Cl)c(OC)cc(OC)c2Cl)cc2cnc(-c3cn(CCN(C)C)nc3C)cc21` [Example 45, 3-(2,6-dichloro-3,5-dimethoxyphenyl)-7-(1-(2-(dimethylamino)ethyl)-3-methyl-1H-pyrazol-4-yl)-1-ethyl-1,6-naphthyridin-2(1H)-one] the same measures were 50 to 500 nM and 10 to 50 nM.
For `COc1cc(OC)c(Cl)c(-c2cc3cnc(-c4cn(CCN5CCOCC5)nc4C)cc3n(C)c2=O)c1Cl` [Example 47, 3-(2,6-dichloro-3,5-dimethoxyphenyl)-1-methyl-7-(3-methyl-1-(2-morpholinoethyl)-1H-pyrazol-4-yl)-1,6-naphthyridin-2(1H)-one] the same measures were 50 to 500 nM and 50 to 500 nM.
Take `CCn1c(=O)c(-c2c(Cl)c(OC)cc(OC)c2Cl)cc2cnc(-c3cnn(CCN4CCOCC4)c3C)cc21` [Example 49, 3-(2,6-dichloro-3,5-dimethoxyphenyl)-1-ethyl-7-(5-methyl-1-(2-morpholinoethyl)-1H-pyrazol-4-yl)-1,6-naphthyridin-2(1H)-one]: the IC50 in test [1] and in test [2] was 50 to 500 nM throughout.
`CCn1c(=O)c(-c2c(Cl)c(OC)cc(OC)c2Cl)cc2cnc(-c3cnn(CC#N)c3C)cc21` [Example 50, 2-(4-(3-(2,6-dichloro-3,5-dimethoxyphenyl)-1-ethyl-2-oxo-1,2-dihydro-1,6-naphthyridin-7-yl)-5-methyl-1H-pyrazol-1-yl)acetonitrile]: the IC50 in test [1] and in test [2] was over 500 nM throughout.
Take `CCn1c(=O)c(-c2c(Cl)c(OC)cc(OC)c2Cl)cc2cnc(-c3cnn(CCC#N)c3C)cc21` [Example 51, 3-(4-(3-(2,6-dichloro-3,5-dimethoxyphenyl)-1-ethyl-2-oxo-1,2-dihydro-1,6-naphthyridin-7-yl)-5-methyl-1H-pyrazol-1-yl)propanenitrile]: the IC50 in test [1] was over 500 nM; in test [2], 50 to 500 nM.
Take `CCn1c(=O)c(-c2c(Cl)c(OC)cc(OC)c2Cl)cc2cnc(-c3cnn(CCN(C)C)c3C)cc21` [Example 52, 3-(2,6-dichloro-3,5-dimethoxyphenyl)-7-(1-(2-(dimethylamino)ethyl)-5-methyl-1H-pyrazol-4-yl)-1-ethyl-1,6-naphthyridin-2(1H)-one]: the IC50 in test [1] was over 500 nM; in test [2] it was 50 to 500 nM.
